Reference: patent US12344611B2, “Bridged cycloformylpyridine derivatives and uses thereof” (BroadenBio Co., Ltd., priority 2019, dated 2025)

Experiments:
HuH-7 hepatoma cells = test: In vitro cell proliferation assay (CellTiter-Glo, CTG), HuH-7; format: cell-based; conditions: Homo sapiens, Huh-7, 96 h, HuH-7 cells
Procedure: (§1) In Vitro Cell Proliferation Assay of FGFR4 (CellTiter-Glo Luminescent Cell Viability Assay, CTG Assay)
(§2) Hep 3B hepatoma cells were purchased from Cell Resource Center of Peking Union College, and HuH-7 hepatoma cells were purchased from Shanghai Biological Technology Co., Ltd. enzyme research. The cells were prepared at a concentration of 3×10^4/mL, which was then added with 100 μL to each well of a 96-well transparent flat-bottom black-walled plate to make 3000 cells per well. Incubate overnight at 37° C. in 5% CO2 incubator. Dilute a compound and add it to the wells having the cells, then add cell culture medium to 200 μL per well. Put in CO2 incubator for incubation. After 96 hours, 100 μL of culture medium was removed from each well, 100 μL of CTG was added, and the 96-well plate was placed on a shaker for 10 minutes, and placed in the shade at room temperature for 45 minutes. Data was read out by SoftMax Pro i3X Microplate Reader of MD, analyzed by the software GraphPad Prism 5.0, and S-shaped dose-response curve was drawn, then the EC50 values were calculated.

Hep 3B hepatoma cells = test: In vitro cell proliferation assay (CellTiter-Glo, CTG), Hep 3B; format: cell-based, human; conditions: Homo sapiens, Hep3B, 96 h, Hep 3B cells
Procedure: as §1, §2

Hep 3B tumor models = test: In vivo efficacy test, Hep3B subcutaneous xenograft in nude mice; parameters: species or system Nu/Nu nude mice; conditions: for tumor inhibition rate: gavage, twice a day, Hep3B xenograft, day 16
Procedure: Human hepatoma Hep3B cells and cell culture medium (EMEM) were purchased from ATCC. Antibiotics (penicillin, streptomycin) and Tryspin-EDTA were purchased from Gibco. Phosphate buffered saline (PBS) and fetal bovine serum (FBS) were purchased from Hyclone. Matrigel was purchased from Corning. Nu/Nu nude mice 6-8 weeks, female, purchased from Vitalriver.
Human hepatoma Hep3B cells were cultured in monolayer in vitro, and cultured in EMEM with 10% fetal bovine serum, 100 U/mL penicillin and 100 μg/mL streptomycin, 37° C., 5% CO2. Trypsin-EDTA was used twice a week for routine digestion and passage. When cell saturation reached 80%-90%, cells were harvested, counted, and seeded. 0.2 mL of 10×10^6 Hep3B cells were subcutaneously seeded on the right back of each nude mouse (PBS:Matrigel=1:1). Administration was started when the average tumor volume reached 128 mm^3.
The mice were administered by gavage, twice a day. Control group was given pure water. Three treatment groups were administered Compound 4, at the doses of 10 mg/kg, 30 mg/kg, and 60 mg/kg, respectively. Tumors were measured and weighed twice a week. By day 16, the average tumor volume in the control group had reached the humanitarian endpoint (2000 mm^3), and the experiment was terminated.
The data was processed by software such as Excel. […] The tumor inhibition effect was obvious in Hep 3B tumor models.

FGFR4 = FGFR4 (Homo sapiens, UniProt P22455); test: In vitro biochemical kinase analysis of FGFR4 (HTRF KinEASE-TK); conditions: HTRF kinase assay
Procedure: In Vitro Biochemical Kinase Analysis of FGFR4
FGFR4 protein kinase detection kit was purchased from Cisbio (HTRF KinEASE-TK kit). Prepare 1× kinase reaction buffer. Transfer 10 nL of a diluted compound to each well of a reaction plate (784075, Greiner) with an Echo 550, and seal the plate with sealing film. The reaction plate was centrifuged at 1000 g for 1 minute. Prepare 2×FGFR4 using 1× kinase reaction buffer, add 5 μL of kinase to each well of the reaction plate, seal the plate, centrifuge at 1000 g for 30 seconds, and incubate it at room temperature for 10 minutes. Prepare a mixture of 2×TK-substrate-biotin and ATP using 1× kinase reaction buffer, add 5 μL of TK-substrate-biotin/ATP mixture to the reaction plate, seal the plate with sealing film, centrifuge at 1000 g for 30 seconds, and react at room temperature for 40 minutes. Prepare 2×Sa-XL 665 and TK-antibody-Cryptate mixture using HTRF detection buffer, add 10 μL Sa-XL 665 and TK-antibody-Cryptate mixture to each well, centrifuge at 1000 g for 30 seconds, and react at room temperature for 1 hour. Envision 2104 read fluorescence signals at 615 nm (Cryptate) and at 665 nm (XL665). IC50 of the compound was calculated using the GraphPad nonlinear fitting formula.

Chain of FGFR4 (P22455 22-802): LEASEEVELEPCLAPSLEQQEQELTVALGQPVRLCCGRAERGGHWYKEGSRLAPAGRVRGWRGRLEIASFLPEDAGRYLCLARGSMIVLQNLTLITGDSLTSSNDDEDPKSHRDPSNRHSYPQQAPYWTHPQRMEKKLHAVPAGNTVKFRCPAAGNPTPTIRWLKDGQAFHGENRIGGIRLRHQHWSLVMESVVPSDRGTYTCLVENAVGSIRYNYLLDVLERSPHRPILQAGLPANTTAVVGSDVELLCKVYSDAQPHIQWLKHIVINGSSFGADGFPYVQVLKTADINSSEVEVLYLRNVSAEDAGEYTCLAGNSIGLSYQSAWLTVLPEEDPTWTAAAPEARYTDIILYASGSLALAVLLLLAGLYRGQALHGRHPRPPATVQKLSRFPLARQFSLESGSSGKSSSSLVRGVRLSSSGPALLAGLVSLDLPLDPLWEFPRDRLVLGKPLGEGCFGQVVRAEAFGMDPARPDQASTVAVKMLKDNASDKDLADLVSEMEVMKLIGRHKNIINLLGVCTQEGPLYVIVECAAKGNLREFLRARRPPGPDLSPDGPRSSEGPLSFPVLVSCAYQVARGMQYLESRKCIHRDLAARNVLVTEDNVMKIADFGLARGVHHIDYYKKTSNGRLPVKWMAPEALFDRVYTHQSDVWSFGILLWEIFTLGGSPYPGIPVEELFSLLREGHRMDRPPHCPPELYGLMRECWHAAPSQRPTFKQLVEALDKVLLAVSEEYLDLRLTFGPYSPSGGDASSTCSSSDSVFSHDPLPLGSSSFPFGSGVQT

SMILES | EC50 (HuH-7 hepatoma cells) | EC50 (Hep 3B hepatoma cells) | IC50 (FGFR4) | tumor inhibition rate (Hep 3B tumor models; 30 mg/kg) | tumor inhibition rate (Hep 3B tumor models; 60 mg/kg) | tumor inhibition effect (Hep 3B tumor models; Hep 3B tumor models, in words)
COCCNc1cc(NC(=O)N2c3nc(C=O)c(CN4CCN(C)CC4=O)cc3C3(F)CC2C3)ncc1C#N [Compound 4, N-(5-cyano-4-((2-methoxyethyl)amino)pyridin-2-yl)-4-fluoro-7-formyl-6-((4-methyl-2-oxopiperazin-1-yl)methyl)-3,4-dihydro-2,4-methylene-1,8-naphthyridine-1(2H)-carboxamide] | 12 nM | 6.4 nM | 0.7 nM | 78% | 97% | obvious
COCCNc1cc(NC(=O)N2c3nc(C=O)c(CN4CCCCOC4=O)cc3C3(F)CC2C3)ncc1C#N [Compound 14] | 28 nM | 7.8 nM | 3.3 nM |  |  | 
CN1CCN(Cc2cc3c(nc2C=O)N(C(=O)Nc2ccc(C(F)(F)F)cn2)C2CC3(F)C2)C(=O)C1 [Compound 16, N-(5-(trifluoromethyl)pyridin-2-yl)-4-fluoro-7-formyl-6-((4-methyl-2-oxopiperazin-1-yl)methyl)-3,4-dihydro-2,4-methylene-1,8-naphthyridine-1(2H)-carboxamide] | > 1000 nM | 638 nM | 23.2 nM |  |  | 
COCCOCCNc1cc(NC(=O)N2c3nc(C=O)ccc3C3(OC)CC2C3)ncc1C#N [Compound 22, N-(5-cyano-4-((2-(2-methoxyethoxy)ethyl)amino)pyridin-2-yl)-7-formyl-4-methoxy-3,4-dihydro-2,4-methylene-1,8-naphthyridine-1(2H)-carboxamide] | 125 nM | 125 nM | 4.7 nM |  |  | 
COC[C@@H](C)Nc1cc(NC(=O)N2c3nc(C=O)c(CN4CCN(C)CC4=O)cc3C3CC2C3)ncc1C#N [Compound 24] | 1.7 nM | 1.4 nM | 0.6 nM |  |  | 
COCCOc1cc(NC(=O)N2c3nc(C=O)c(CN4CCN(C)CC4=O)cc3C3CC2C3)ncc1C#N [Compound 25, N-(5-cyano-4-(methoxyethoxy)pyridin-2-yl)-7-formyl-6-((4-methyl-2-oxopiperazin-1-yl)methyl)-3,4-dihydro-2,4-methylene-1,8-naphthyridine-1(2H)-carboxamide] | 25.4 nM | 19.3 nM | 2.5 nM |  |  | 
COCCNc1cc(NC(=O)N2c3nc(C=O)c(CN4CCOCC4=O)cc3C3CC2C3)ncc1C#N [Compound 27, N-(5-cyano-4-((2-methoxyethyl)amino)pyridin-2-yl)-7-formyl-6-((3-oxomorpholinyl)methyl)-3,4-dihydro-2,4-methylene-1,8-naphthyridine-1(2H)-carboxamide] | 9.7 nM | 6.7 nM | 1.4 nM |  |  | 
COCCNc1cc(NC(=O)N2c3nc(C=O)ccc3C3(NC(=O)C4CCN(C)CC4)CC2C3)ncc1C#N [Compound 31] | 4.5 nM | 5.5 nM | 1.1 nM |  |  | 
COCCNc1cc(NC(=O)N2c3nc(C=O)ccc3C3(OCCOC)CC2C3)ncc1C#N [Compound 36, N-(5-cyano-4-((2-methoxyethyl)amino)pyridin-2-yl)-4-(2-methoxyethoxy)-7-formyl-3,4-dihydro-2,4-methylene-1,8-naphthyridine-1(2H)-carboxamide] | 11.8 nM | 8.5 nM | 2.5 nM |  |  | 
CCS(=O)(=O)NC12CC(C1)N(C(=O)Nc1cc(NCCOC)c(C#N)cn1)c1nc(C=O)ccc12 [Compound 38, N-(5-cyano-4-((2-methoxyethyl)amino)pyridin-2-yl)-4-ethanesulfonamido-7-formyl-3,4-dihydro-2,4-methylene-1,8-naphthyridine-1(2H)-carboxamide] | 19.2 nM | 9.5 nM | 2.3 nM |  |  | 

Continued, in another order:

EC50 (HuH-7 hepatoma cells) | EC50 (Hep 3B hepatoma cells) | IC50 (FGFR4) | SMILES | tumor inhibition rate (Hep 3B tumor models; 30 mg/kg) | tumor inhibition rate (Hep 3B tumor models; 60 mg/kg) | tumor inhibition effect (Hep 3B tumor models; Hep 3B tumor models, in words)
15.1 nM | 5.6 nM | 2.5 nM | COCCNc1cc(NC(=O)N2c3nc(C=O)c(CN4CCN(C)CC4=O)cc3C3CC2C3)ncc1C#N [Compound 18, N-(5-cyano-4-((2-methoxyethyl)amino)pyridin-2-yl)-7-formyl-6-((4-methyl-2-oxopiperazin-1-yl)methyl)-3,4-dihydro-2,4-methylene-1,8-naphthyridine-1(2H)-carboxamide] |  |  | 
28.4 nM | 15.8 nM | 2.1 nM | CCc1cc2c(nc1C=O)N(C(=O)Nc1cc(NCCOC)c(C#N)cn1)C1CC2(F)C1 [Compound 21] |  |  | 
6.9 nM | 7.2 nM | 1.1 nM | COCCNc1cc(NC(=O)N2c3nc(C=O)c(CN4CCCCOC4=O)cc3C3CC2C3)ncc1C#N [Compound 28] |  |  | 
0.2 nM | 1.2 nM | 1.1 nM | COCCNc1cc(NC(=O)N2c3nc(C=O)ccc3C3(OCCN(C)C)CC2C3)ncc1C#N [Compound 29, N-(5-cyano-4-((2-methoxyethyl)amino)pyridin-2-yl)-4-(2-(dimethylamino)ethoxy)-7-formyl-3,4-dihydro-2,4-methylene-1,8-naphthyridine-1(2H)-carboxamide] |  |  | 
0.7 nM | 1.7 nM | 0.5 nM | COCCNc1cc(NC(=O)N2c3nc(C=O)ccc3C3(NC(=O)c4cnn(C)c4)CC2C3)ncc1C#N [Compound 32, N-(5-cyano-4-((2-methoxyethyl)amino)pyridin-2-yl)-4-(1-methyl-1H-pyrazole-4-carboxamido)-7-formyl-3,4-dihydro-2,4-methylene-1,8-naphthyridine-1(2H)-carboxamide] |  |  | 
10 nM | 7.8 nM | 1.6 nM | COCCNc1cc(NC(=O)N2c3nc(C=O)ccc3C3(OCCN4CCOCC4)CC2C3)ncc1C#N [Compound 39] |  |  | 
39.6 nM | 24.9 nM | 3.4 nM | COCCNc1cc(NC(=O)N2c3nc(C=O)ccc3C3(NC(=O)C4CCN(C)C4)CC2C3)ncc1C#N (stereo not drawn) [Compound 40] |  |  | 
13.3 nM | 11.9 nM | 3.4 nM | COCCNc1cc(NC(=O)N2c3nc(C=O)ccc3C3(NC(=O)CN4CCCC4)CC2C3)ncc1C#N [Compound 41] |  |  | 
